Measurements taken from patent publication US7910620B2, “Uses of neuraminidase inhibitors in infectious diseases” (priority 2005, dated 2011).
“And” between values parts separate entries of the source, which are not always exact repeats. Identical values can stand only once. “Also recorded” adds a separate entry of the source.

Legend:
[1] = test system: Infectious Canine Tracheobronchitis (ICT) or Kennel Cough; format: in vivo, dog; details: for Clinical course (Days to Recover): racing greyhounds Miami, oral antibiotic plus cough suppressant, no Tamiflu, 5 days
E. coli = experiment: Clinical Trial: Tamiflu and E. coli (case Pinga, Table 16); format: in vivo, feline; details: for Clinical response: case Pinga, acute vomiting and hematuria, endotoxic condition
Description: In Table 16, E. coli, a neuraminidase dependent bacteria, was cultured from Pinga's urine following an acute onset of vomiting and hematuria. […] 24, 2005 when […] presented in an endotoxic condition.

[2] = test system: canine parvoviral enteritis; experiment: Canine parvoviral enteritis clinical cases: treatment and prevention with oral Tamiflu; format: in vivo, dog; details: for Outcome of exposed dogs (Days to Recover): exposed - preventive, Tamiflu 1 mg/lb once a day (AM) for 5 days
Description: Table 3 represents 28 Chihuahua dogs and puppies that experienced an outbreak of canine parvoviral enteritis within their kennel. The initial treatment lasted one week and was consistent with traditional therapy. (IV fluids, antibiotics and antiemetics). During the first week, 9 puppies died and a second veterinarian was consulted.
The second veterinarian removed all IV treatment and started oral Tamiflu and AmoxiDrops on 11 puppies. This treatment was administered by the kennel staff with the veterinarian consulting by phone.
The exposed dogs received 1 mg/lb of Tamiflu once a day for 5 days.
Table 4 represents of 25 cocker spaniel dogs and puppies that experienced an outbreak of canine parvoviral enteritis within their kennel. The initial treatment lasted one week and was consistent with traditional therapy consisting of IV fluids and antibiotics, antiemetics and steroids. During this period of time, 9 puppies died, and a second veterinarian was consulted.
The second veterinarian removed all IV treatment and oral Tamiflu and sulfadimethoxine/ormetoprim (antibiotic) were the only drugs administered to 11 of the puppies. The 12th puppy was taken to the veterinarian's clinic and received IV therapy. Those puppies remaining at the kennel were treated by the kennel staff.
Table 5 represents 48 individual cases of Canine Parvoviral Enteritis treated with 1 mg/lb Tamiflu AM/PM for 10 treatments. Cases posted VIN's Infectious Dz Board by 20 veterinarians practicing in 15 states.

[3] = test system: Raccoon Parvoenteritis/Distemper; experiment: Raccoon parvoenteritis/distemper treated with Tamiflu; format: in vivo; details: raccoons, Tamiflu 1 mg/lb every 12 hrs for 10 treatments, no IV drugs
Description: Table 7 represents 5 raccoons treated with Tamiflu at 1 mg/lb given every 12 hrs for 10 treatments. Treatment administered by civilian rehabbers at their homes. Granules mixed with pancake syrup.
Raccoons represent the 5th species (cow, dog, cat, mice) in which a neuraminidase inhibitor has been successful in treating or preventing a disease associated with neuramimidase dependent bacteria. Before using Tamiflu, the hemorrhagic gastroenteritis (Parvo) in raccoon was 100% fatal. […] Treatment was administered by untrained lay personnel at the rehab centers.

[4] = test system: Feline Parvoviral Enteritis; experiment: Feline parvoviral enteritis cases: treatment and prevention with Tamiflu; format: in vivo, cat
Description: Table 6 represents 5 cases of Feline Parvoviral Enteritis with Tamiflu at 1 mg/lb AM/PM for 10 treatments.

Structure (SMILES): CC1=C(C(=O)O)N2C(=O)[C@@H](NC(=O)[C@H](N)c3ccccc3)[C@H]2SC1 [Cephalexin]
- Clinical course (Days to Recover) [1]: No Change

Structure (SMILES): C[C@H]1c2cccc(O)c2C(O)=C2C(=O)[C@]3(O)C(O)=C(C(N)=O)C(=O)[C@@H](N(C)C)[C@@H]3[C@@H](O)[C@@H]21 [Doxy]
- Clinical course (Days to Recover) [1]: No Change

Structure (SMILES): CCOC(=O)C1=C[C@@H](OC(CC)CC)[C@H](NC(C)=O)[C@@H](N)C1 [Tamiflu, oseltamivir]
- Clinical response (E. coli; E. coli cultured from urine): dramatic reversal
- Observations (E. coli; cat Pinga, E. coli cultured from urine, at 2nd treatment, Nov. 24, 2004 5:35 PM, Tamiflu 12 mg PO (1 mg/lb), with Zeniquin): Pinga is more alert and has not vomited
- Temp (E. coli; cat Pinga, at 3rd treatment, Nov. 25, 2004): 99.5 F.
- Temp (E. coli; cat Pinga, at 4th treatment, Nov. 25, 2004): 98.9 F.
- Observations (E. coli; cat Pinga, at 4th treatment, Nov. 25, 2004 5:30 PM, Tamiflu 12 mg PO): Urinated, was normal yellow color . . . has
- Temp (E. coli; cat Pinga, at 5th treatment, Nov. 26, 2004): 98.8 F.
- Observations (E. coli; cat Pinga, at 5th treatment, Nov. 26, 2004 10:30 AM, Tamiflu 12 mg PO, with Zeniquin): exam is normal
- Temp (E. coli; cat Pinga, at 6th treatment, Nov. 26, 2004): 100.6 F.
- Observations (E. coli; cat Pinga, at 6th treatment, Nov. 26, 2004 5 PM, Tamiflu 12 mg PO): Urinated normal urine . . . passed 3 small
- Temp (E. coli; cat Pinga, at 7th treatment, Nov. 27, 2004): 98.8 F.
- Observations (E. coli; cat Pinga, at 7th treatment, Nov. 27, 2004 10:30 AM, Tamiflu 12 mg PO, with Zeniquin): more alert . . . began to eat Wellness dry
- Temp (E. coli; cat Pinga, at 9th treatment, Nov. 28, 2004): 100.1 F.
- Observations (E. coli; cat Pinga, at 9th treatment, Nov. 28, 2004 10:30 AM, Tamiflu 12 mg PO, with Zeniquin): almost “normal” . . . maybe weak in rear
- Observations (E. coli; cat Pinga, at 10th (last) treatment, 5:30 PM, Tamiflu 12 mg PO): Pinga appears to be normal . . . this is his
- Days to Recover ([2]; Chihuahua kennel puppies, Tamiflu 1 mg/lb AM/PM oral with AmoxiDrops, no IV drugs): 5 days and 3 days
- Survival of puppies ([2]; Chihuahua kennel, 11 puppies, oral Tamiflu and AmoxiDrops): All puppies survived
- Outcome of exposed dogs (Days to Recover) ([2]; Chihuahua kennel): remained healthy
- Days to Recover ([2]; Sandcastle Kennels cocker puppies, Tamiflu 1 mg/lb AM/PM oral with sulfadimethoxine/ormetoprim): 3 days and 5 days and 4 days
- Outcome of exposed dogs (Days to Recover) ([2]; Sandcastle Kennels): did not develop canine parvoviral enteritis; also recorded: Healthy
- Outcome of exposed dog (Days to Recover) ([2]; Table 5, exposed puppy, weak parvo test, Tamiflu 1 mg/lb AM/PM): Normal
- Days to Recover [3]: 3 days
- Days to Recover ([4]; cats, Tamiflu 1 mg/lb AM/PM for 10 treatments, with IV drugs or SQ fluids): 4 days and 2 days and 3 days
- Outcome of exposed kitten (Days to Recover) ([4]; exposed kitten, Tamiflu 1 mg/lb once a day (AM) for 5 days): remained normal
- Days to Recover ([1]; kennel cough, Tamiflu 1 mg/lb AM/PM, with or without oral antibiotic, no cough suppressant): 3 to 5 days
- Illness in holding kennels under herd health program ([1]; sick dogs 1 mg/lb AM/PM 5 days, others and new puppies 1 mg/lb once a day for 5 days): below 5%

Structure (SMILES): CN1CCN(c2c(F)cc3c(=O)c(C(=O)O)cn4c3c2OCN4C)CC1 [Zeniquin]
- Clinical response (E. coli; E. coli cultured from urine): failed to respond
- Clinical course under antibiotic therapy (Medical History) (E. coli; cat Pinga, Zeniquin 12.5 mg/day PO from Nov. 22 to Nov. 24, 2004, before Tamiflu): had gotten progressively worse over the course of antibiotic therapy, and now appeared to be approaching
